Reference: PubChem BioAssay AID1259407 (Chemical Carcinogenesis Research Information System (CCRIS), 2018)
Activity calls are given as the source filed them. How the calls were made is not given here.

Test system: CCRIS mutagenicity, Ames/micronucleus/aberration tests
Experiment: CCRIS mutagenicity studies
[1] = Test System: AMES SALMONELLA TYPHIMURIUM, Strain/Indicator: TA98, Metabolic Activation: NONE, Method: STANDARD PLATE
[2] = Test System: AMES SALMONELLA TYPHIMURIUM, Strain/Indicator: TA98, Metabolic Activation: RAT, LIVER, S-9, AROCLOR 1254, Method: STANDARD PLATE
[3] = Test System: AMES SALMONELLA TYPHIMURIUM, Strain/Indicator: TA100, Metabolic Activation: NONE, Method: STANDARD PLATE
[4] = Test System: AMES SALMONELLA TYPHIMURIUM, Strain/Indicator: TA98, Metabolic Activation: S-9, Method: STANDARD PLATE
[5] = Test System: AMES SALMONELLA TYPHIMURIUM, Strain/Indicator: TA100, Metabolic Activation: S-9, Method: STANDARD PLATE
[6] = Test System: AMES SALMONELLA TYPHIMURIUM, Strain/Indicator: TA98, Metabolic Activation: NONE, Method: PREINCUBATION
[7] = Test System: AMES SALMONELLA TYPHIMURIUM, Strain/Indicator: TA100, Metabolic Activation: NONE, Method: PREINCUBATION
[8] = Test System: AMES SALMONELLA TYPHIMURIUM, Strain/Indicator: TA1535, Metabolic Activation: NONE, Method: PREINCUBATION
[9] = Test System: AMES SALMONELLA TYPHIMURIUM, Strain/Indicator: TA1537, Metabolic Activation: NONE, Method: PREINCUBATION

In the case of `CSCC[C@H](NC(=O)[C@@H](N)Cc1c[nH]c2ccccc12)C(=O)N[C@@H](CC(=O)O)C(=O)N[C@@H](Cc1ccccc1)C(N)=O`, the mutagenic call [1] is reported as “inactive; negative”, the mutagenic call [2] is reported as “inactive; negative” and the mutagenic call [3] is reported as “inactive; negative”. For the same compound, the mutagenic call (Test System: AMES SALMONELLA TYPHIMURIUM, Strain/Indicator: TA100, Metabolic Activation: RAT, LIVER, S-9, AROCLOR 1254, Method: STANDARD PLATE) was “inactive; negative”, the mutagenic call (Test System: AMES SALMONELLA TYPHIMURIUM, Strain/Indicator: TA1535, Metabolic Activation: NONE, Method: STANDARD PLATE) was “inactive; negative” and the mutagenic call (Test System: AMES SALMONELLA TYPHIMURIUM, Strain/Indicator: TA1535, Metabolic Activation: RAT, LIVER, S-9, AROCLOR 1254, Method: STANDARD PLATE) was “inactive; negative”. The mutagenic call (Test System: AMES SALMONELLA TYPHIMURIUM, Strain/Indicator: TA1537, Metabolic Activation: NONE, Method: STANDARD PLATE) was “inactive; negative” and the mutagenic call (Test System: AMES SALMONELLA TYPHIMURIUM, Strain/Indicator: TA1537, Metabolic Activation: RAT, LIVER, S-9, AROCLOR 1254, Method: STANDARD PLATE) was “inactive; negative”.

For `Cc1ccc(/C=C/c2ccc(N)cc2)cc1`, the mutagenic call (Test System: AMES SALMONELLA TYPHIMURIUM, Strain/Indicator: TA98(1,8-DNP6), Metabolic Activation: NONE, Method: STANDARD PLATE) was “inactive; negative”, the mutagenic call (Test System: AMES SALMONELLA TYPHIMURIUM, Strain/Indicator: TA98(1,8-DNP6), Metabolic Activation: S-9, Method: STANDARD PLATE) was “active; positive” and the mutagenic call [1] was “inactive; negative”. For the same compound, the mutagenic call (Test System: AMES SALMONELLA TYPHIMURIUM, Strain/Indicator: TA98, Metabolic Activation: RAT LIVER S9, AROCHLOR, Method: STANDARD PLATE) was “active; positive”, the mutagenic call [4] was “active; positive” and the mutagenic call [3] was “inactive; negative”. For the same compound, the mutagenic call (Test System: AMES SALMONELLA TYPHIMURIUM, Strain/Indicator: TA100, Metabolic Activation: RAT, LIVER, S9, AROCLOR, Method: STANDARD PLATE) was “active; positive” and the mutagenic call [5] was “active; positive”.

With `C[C@H](CC1=C(C=O)CO[C@@H]1O)C1=CCC(C)(C)C1` the mutagenic call [1] was “inactive; negative”, the mutagenic call [3] was “inactive; negative” and the mutagenic call (Test System: AMES SALMONELLA TYPHIMURIUM, Strain/Indicator: TA2637, Metabolic Activation: NONE, Method: STANDARD PLATE) was “inactive; negative”.

For `Cc1ccc2cc3c4c(ccc3c3c2c1CC3)C=C[C@H](O)[C@H]4O`, the mutagenic call (Test System: CHINESE HAMSTER V-79, Strain/Indicator: V-79/8-AZAGUANINE, Metabolic Activation: NONE, Method: STANDARD PLATE) was “active; positive”.

In the case of `CCCCOC(=O)CCCCCCCCC(=O)OCCCC`, the mutagenic call (Test System: AMES SALMONELLA TYPHIMURIUM, Strain/Indicator: TA97, Metabolic Activation: NONE, Method: STANDARD PLATE) is reported as “inactive; negative”, the mutagenic call (Test System: AMES SALMONELLA TYPHIMURIUM, Strain/Indicator: TA97, Metabolic Activation: S-9, Method: STANDARD PLATE) is reported as “inactive; negative” and the mutagenic call [1] is reported as “inactive; negative”. For the same compound, the mutagenic call [4] was “inactive; negative”, the mutagenic call [3] was “inactive; negative” and the mutagenic call [5] was “inactive; negative”. For the same compound, the mutagenic call (Test System: AMES SALMONELLA TYPHIMURIUM, Strain/Indicator: TA102, Metabolic Activation: NONE, Method: STANDARD PLATE) was “inactive; negative”, the mutagenic call (Test System: AMES SALMONELLA TYPHIMURIUM, Strain/Indicator: TA102, Metabolic Activation: S-9, Method: STANDARD PLATE) was “inactive; negative” and the mutagenic call (Test System: E.COLI, Strain/Indicator: WP2 (PKM101), Metabolic Activation: NONE, Method: STANDARD PLATE) was “inactive; negative”. The mutagenic call (Test System: E.COLI, Strain/Indicator: WP2 (PKM101), Metabolic Activation: S-9, Method: STANDARD PLATE) was “inactive; negative”.

`CCN(CC)C(=S)SSC(=S)N(CC)CC` was tested, and the mutagenic call (Test System: AMES SALMONELLA TYPHIMURIUM, Strain/Indicator: TA98, Metabolic Activation: HAMSTER, LIVER, S-9, AROCLOR 1254 (10%), Method: PREINCUBATION) was “inactive; negative”, the mutagenic call [6] was “inactive; negative” and the mutagenic call (Test System: AMES SALMONELLA TYPHIMURIUM, Strain/Indicator: TA98, Metabolic Activation: RAT, LIVER, S-9, AROCLOR 1254 (10%), Method: PREINCUBATION) was “inactive; negative”. For the same compound, the mutagenic call (Test System: AMES SALMONELLA TYPHIMURIUM, Strain/Indicator: TA100, Metabolic Activation: HAMSTER, LIVER, S-9, AROCLOR 1254 (10%), Method: PREINCUBATION) was “inactive; negative”, the mutagenic call [7] was “inactive; negative” and the mutagenic call (Test System: AMES SALMONELLA TYPHIMURIUM, Strain/Indicator: TA100, Metabolic Activation: RAT, LIVER, S-9, AROCLOR 1254 (10%), Method: PREINCUBATION) was “inactive; negative”. For the same compound, the mutagenic call (Test System: AMES SALMONELLA TYPHIMURIUM, Strain/Indicator: TA1535, Metabolic Activation: HAMSTER, LIVER, S-9, AROCLOR 1254 (10%), Method: PREINCUBATION) was “inactive; negative”, the mutagenic call [8] was “inactive; negative” and the mutagenic call (Test System: AMES SALMONELLA TYPHIMURIUM, Strain/Indicator: TA1535, Metabolic Activation: RAT, LIVER, S-9, AROCLOR 1254 (10%), Method: PREINCUBATION) was “inactive; negative”. The mutagenic call (Test System: AMES SALMONELLA TYPHIMURIUM, Strain/Indicator: TA1537, Metabolic Activation: HAMSTER, LIVER, S-9, AROCLOR 1254 (10%), Method: PREINCUBATION) was “inactive; negative”, the mutagenic call [9] was “inactive; negative” and the mutagenic call (Test System: AMES SALMONELLA TYPHIMURIUM, Strain/Indicator: TA1537, Metabolic Activation: RAT, LIVER, S-9, AROCLOR 1254 (10%), Method: PREINCUBATION) was “inactive; negative”. For the same compound, the mutagenic call (Test System: MOUSE LYMPHOMA, Strain/Indicator: L5178Y (TK+/TK-), Metabolic Activation: NONE, Method: SUSPENSION/PLATE) was “active; positive”.

For `[O-][n+]1cccc2c1[C@H]1O[C@H]1C=C2`, the mutagenic call [3] was “inactive; negative” and the mutagenic call (Test System: AMES SALMONELLA TYPHIMURIUM, Strain/Indicator: TA100, Metabolic Activation: RAT, LIVER, S-9, AROCLOR 1254 (10 OR 20%), Method: STANDARD PLATE) was “inactive; negative”.

With `CNC(=O)C[C@@H](N)C(=O)N[C@@H](C(=O)N[C@@H]1C(=O)N2[C@@H]1SC(C)(C)[C@@H]2C(=O)O)c1ccc(O)cc1` the mutagenic call [6] was “inactive; negative”, the mutagenic call (Test System: AMES SALMONELLA TYPHIMURIUM, Strain/Indicator: TA98, Metabolic Activation: RAT, LIVER, S-9, PHENOBARBITAL AND BENZOFLAVONE, Method: PREINCUBATION) was “inactive; negative” and the mutagenic call [7] was “inactive; negative”. The mutagenic call (Test System: AMES SALMONELLA TYPHIMURIUM, Strain/Indicator: TA100, Metabolic Activation: RAT, LIVER, S-9, PHENOBARBITAL AND BENZOFLAVONE, Method: PREINCUBATION) was “inactive; negative”, the mutagenic call [8] was “inactive; negative” and the mutagenic call (Test System: AMES SALMONELLA TYPHIMURIUM, Strain/Indicator: TA1535, Metabolic Activation: RAT, LIVER, S-9, PHENOBARBITAL AND 5,6 BENZOFLAVONE, Method: PREINCUBATION) was “inactive; negative”. For the same compound, the mutagenic call [9] was “inactive; negative”, the mutagenic call (Test System: AMES SALMONELLA TYPHIMURIUM, Strain/Indicator: TA1537, Metabolic Activation: RAT, LIVER, S-9, PHENOBARBITAL AND 5,6 BENZOFLAVONE, Method: PREINCUBATION) was “inactive; negative” and the mutagenic call (Test System: AMES SALMONELLA TYPHIMURIUM, Strain/Indicator: TA1538, Metabolic Activation: NONE, Method: PREINCUBATION) was “inactive; negative”. For the same compound, the mutagenic call (Test System: AMES SALMONELLA TYPHIMURIUM, Strain/Indicator: TA1538, Metabolic Activation: RAT, LIVER, S-9, PHENOBARBITAL AND 5,6 BENZOFLAVONE, Method: PREINCUBATION) was “inactive; negative”, the mutagenic call (Test System: E. COLI, Strain/Indicator: WP2 UVRA, Metabolic Activation: NONE, Method: PREINCUBATION) was “inactive; negative” and the mutagenic call (Test System: E. COLI, Strain/Indicator: WP2 UVRA, Metabolic Activation: RAT, LIVER, S-9, PHENOBARBITAL AND 5,6 BENZOFLAVONE, Method: PREINCUBATION) was “inactive; negative”.

With `Cc1cnc2c(ccc3c2nc(N)n3C)n1` the mutagenic call (Test System: AMES SALMONELLA TYPHIMURIUM, Strain/Indicator: TA98, Metabolic Activation: RAT, LIVER, S-9, AROCLOR 1254, Method: PREINCUBATION) was “active; positive” and the mutagenic call [2] was “active; positive”.
